Experimental findings from ChEMBL document CHEMBL5661979, “Pharmacological inhibition of BMK1 suppresses tumor growth through promyelocytic leukemia protein” (Cancer Cell, 2010) are described below.

This test addresses Mitogen-activated protein kinase; ERK1/ERK2 (Homo sapiens) (UniProt P27361+P28482). Put plainly: Inhibition of ERK1/2 in human HeLa cells assessed as reduction in EGF-induced ERK1/2 phosphorylation level at T202/Y204 residue at 1 uM pre incubated for 1 hr followed by EGF stimulation and measured after 17 mins by Western blot analysis. Type of test: cell-based. To be noted: time 77.0 min.

Activity calls are given as the source filed them. The calls are words filed in the database; no cut-off is given here.

Chain of Mitogen-activated protein kinase; ERK1/ERK2 (Homo sapiens) (P27361 whole entry, looked up): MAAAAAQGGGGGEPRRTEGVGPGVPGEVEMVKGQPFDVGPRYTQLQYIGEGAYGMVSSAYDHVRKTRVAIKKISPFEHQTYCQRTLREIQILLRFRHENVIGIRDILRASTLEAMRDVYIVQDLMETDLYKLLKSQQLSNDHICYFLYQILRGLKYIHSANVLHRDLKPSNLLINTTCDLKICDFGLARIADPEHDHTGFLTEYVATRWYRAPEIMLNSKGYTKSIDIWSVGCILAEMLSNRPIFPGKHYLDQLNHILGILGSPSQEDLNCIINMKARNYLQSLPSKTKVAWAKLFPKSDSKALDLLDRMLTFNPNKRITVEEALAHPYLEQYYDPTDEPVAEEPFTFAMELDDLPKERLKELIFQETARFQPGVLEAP
Chain of Mitogen-activated protein kinase; ERK1/ERK2 (Homo sapiens) (P28482 whole entry, looked up): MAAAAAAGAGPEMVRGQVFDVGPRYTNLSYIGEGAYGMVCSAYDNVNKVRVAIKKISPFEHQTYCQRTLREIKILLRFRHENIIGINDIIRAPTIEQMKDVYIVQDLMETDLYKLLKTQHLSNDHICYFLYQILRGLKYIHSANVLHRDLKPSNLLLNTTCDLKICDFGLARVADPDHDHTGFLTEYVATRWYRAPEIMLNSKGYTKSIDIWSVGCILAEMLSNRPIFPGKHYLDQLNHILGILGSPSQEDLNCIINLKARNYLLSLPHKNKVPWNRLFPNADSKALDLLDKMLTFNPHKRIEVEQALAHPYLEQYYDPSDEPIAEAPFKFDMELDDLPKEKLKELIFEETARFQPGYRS

Take `O=C(NOCC1CC1)c1ccc(F)c(F)c1Nc1ccc(I)cc1Cl`: the inhibition entry is “Active”.
